Laboratory results from US7378237B2, “Development of method for screening physiologically active pyrrole imidazole derivative” (Japan Science & Technology Corporation, priority 1999, dated 2008).

System: double-stranded DNA
Experiment: Alkylation and cleavage of double-stranded DNA by ImPyLDu86 (gel, cleavage bands by heating)
Type: biochemical
Settings: cleavage mainly at site 1 and site 2, bands after heating, FIG. 1
Procedure: Reactivities of thus synthesized PyPyLDu86 and ImPyLDu86 with DNA were determined.
Locations of alkylation can be observed as cleavage bands by heating. As a result, the double-stranded DNA was cleaved mainly at the site 1 and the site 2 from a low concentration, and it was understood that the alkylation occurred simultaneously in the double-stranded DNA. No compound to generate such a cleavage has been known until now, and it can be surely regarded as an artificial restriction enzyme.

COC(=O)c1c(C)[nH]c2c1C13CC1CN(C(=O)/C=C/c1cc(NC(=O)c4nc(NC(C)=O)cn4C)cn1C)C3=CC2=O (stereo not shown) [ImPyLDu86]
ratio of cleavage of double-stranded DNA: 70%
